Measured values from patent publication US20260109699A1, “AZOLE DERIVATIVES AS SHP2 INHIBITORS” (IRBM S.P.A., priority 2022, published 2026).

Assays:
[1] = molecular target: T1, SHP-2 enzyme (Met1-Leu525), SHP2wt (Homo sapiens, UniProt Q06124); assay: SHP2 inhibition enzymatic assay; type: biochemical; details: 0.5 nM SHP-2 activated by 500 nM IRS1 peptide, 75 μM DiFMUP substrate
T1 construct: synthetized by Origene, Met1-Leu525, cat #TP750155; purchased Origene TP750155
T1 sequence (Q06124 1-525): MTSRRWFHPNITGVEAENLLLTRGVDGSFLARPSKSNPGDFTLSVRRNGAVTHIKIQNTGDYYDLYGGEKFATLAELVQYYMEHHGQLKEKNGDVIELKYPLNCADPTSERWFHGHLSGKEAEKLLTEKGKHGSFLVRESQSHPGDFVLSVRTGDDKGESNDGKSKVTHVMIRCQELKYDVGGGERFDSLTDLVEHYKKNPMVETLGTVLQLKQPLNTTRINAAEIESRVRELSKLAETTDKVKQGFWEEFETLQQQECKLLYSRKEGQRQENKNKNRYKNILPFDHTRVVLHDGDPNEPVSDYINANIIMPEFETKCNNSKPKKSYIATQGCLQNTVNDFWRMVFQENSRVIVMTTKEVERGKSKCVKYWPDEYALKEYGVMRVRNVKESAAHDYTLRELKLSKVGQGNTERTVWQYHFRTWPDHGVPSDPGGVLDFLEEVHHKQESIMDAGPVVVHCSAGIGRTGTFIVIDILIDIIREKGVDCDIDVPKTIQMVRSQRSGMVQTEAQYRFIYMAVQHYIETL
How it was run: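 Human SHP2 (Met1-Leu525, 0.5 nM) activated by 500 nM bis-phosphorylated IRS1 peptide, pre-incubated 30 min with compound, then 75 μM DiFMUP for 30 min at rt in HEPES pH 7.2, NaCl/KCl, EDTA, Tween-20, 5 mM DTT. Reaction quenched with bpV, fluorescence read; IC50 by four-parameter logistic fit.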

[2] = system: phospho-ERK1/2 (Thr202/Tyr204); assay: Phospho-ERK cellular assay; type: cell-based; details: Homo sapiens; KYSE-520 cells, 2 h at 37° C, TR-FRET; read-out: pERK IC50
How it was run: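 KYSE-520 cells treated overnight-after-plating with serially diluted compounds for 2 h at 37° C, then lysed. Phospho-ERK1/2 measured by TR-FRET after overnight antibody incubation at rt; inhibition normalized between DMSO (0%) and no-cell (100%) wells, IC50 from four-parameter logistic fit.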

[3] = molecular target: T2, recombinant SHP2 protein (AviTag-G4SG4S-SHP2(1-525)) (Homo sapiens, UniProt Q06124); assay: Binding kinetic assay by surface plasmon resonance (SPR); details: for Residence time 1/koff SPR: 1/koff from SPR; for koff: Biacore T200, single cycle kinetic, 25° C, 1:1 Langmuir model
T2 construct: recombinant SHP2 protein (AviTag-G4SG4S-SHP2(1-525)); purchased VIVA Biotech Ltd (custom production)
T2 sequence (Q06124 1-525): T1 sequence (Q06124 1-525)
Method: A N-term biotinylated recombinant SHP2 protein (AviTag-G4SG4S-SHP2(1-525)) was custom produced by VIVA Biotech Ltd. Binding kinetic rate constants were measured by SPR, using a Biacore T200 instrument. The recombinant SHP2 protein was diluted at […] in HBS-P+ buffer, then captured on a series S streptavidin sensor chip up to 5000 RU. Binding of compounds was assessed by a single cycle kinetic procedure (SCK): compounds were diluted in HBS-EP+ supplemented with 20% DMSO (from 300 to 3.7 nM, 3 fold dilution), injected for 120 s over the ligand, then dissociation rate measured for 3600 s, at […] and 25° C. Sensorgrams were analysed by Biacore T200 evaluation software: binding rate constants (kon, koff) and affinity (KD) were calculated by curve filling according to a 1:1 Langmuir model. Each molecule was tested in triplicate on separate flow channels.

[4] = Determination of brain penetration in SD rats; type: in vivo; details: Sprague-Dawley (SD), rat; male SD rats, IV 0.2 mg/kg, unbound brain to plasma ratio at 8 h; read-out: Kpuu, brain
Method: Total brain levels, expressed as brain/plasma ratio (Kp,brain) were measured by Cbrain@8h/Cplasma@8h in SD rats after IV administration (see Pharmaceutical Research, Vol. 25, No. 8, August 2008 DOI: 10.1007/s11095-007-9502-2; Pharmaceutical Research (2022) 39:1321-1341 https://doi.org/10.1007/s11095-022-03246-6). Unbound fraction of each molecule in biological matrix was determined by in vitro plasma and brain binding assay. Kpuu, brain was calculated by the following equation: […]
In vitro plasma and brain binding assay was carried out on a RED (Rapid Equilibrium Dialysis) device. Unbound fraction (fu) of each molecule in the brain homogenate and plasma were calculated by the ratio of the buffer side response to the brain homogenate/plasma side response. An IV study design was used as the in vivo screening model to identify brain penetration of each molecule. Male naïve SD rats (n=3) were intravenously dosed with each molecule at 0.2 mg/kg in DMSO/Propylene Glycol/Water, 20:60:20 (v/v/v). At 0.083, 0.25, 0.5, 1, 2, 4, and 8 h post-dose plasma samples were collected via tail vein and brain tissue was harvested at the 8 h time point and homogenized in 3× volume of water. All samples were stored at ˜−80° C. prior to LC/MS/MS analysis. At the 8 h time point, the unbound brain to plasma ratios were generated to identify molecules with Kpuu, brain values>0.3 which is indicative of good passive brain penetration.

Row | SMILES | IC50 [1] [nM] | IC50 [2] [nM] | Residence time 1/koff SPR [3] [s] | koff [3] [s⁻¹] | Kp uu at 8 h [4]
1 | N[C@@H]1c2ccnn2CC12CCN(c1cnc(Sc3ccccc3F)cn1)CC2 [Example 21, (S)-1-(5-((2-fluorophenyl)thio)pyrazin-2-yl)-4′H,6′H-spiro[piperidine-4,5′-pyrrolo[1,2-b]pyrazol]-4′-amine] | ≤ 50 | < 100 | 11001 | 9.09e-05 | > 0.3
2 | Cc1cccc(Sc2cnc(N3CCC4(CC3)Cn3nccc3[C@H]4N)cn2)c1F [Example 36, (S)-1-(5-((2-fluoro-3-methylphenyl)thio)pyrazin-2-yl)-4′H,6′H-spiro[piperidine-4,5′-pyrrolo[1,2-b]pyrazol]-4′-amine] | ≤ 50 | < 100 | 53571 | 1.87e-05 | < 0.3
3 | N[C@@H]1c2ccnn2CC12CCN(c1cnc(Sc3ccnc4ccccc34)cn1)CC2 [Example 39, (S)-1-(5-(quinolin-4-ylthio)pyrazin-2-yl)-4′H,6′H-spiro[piperidine-4,5′-pyrrolo[1,2-b]pyrazol]-4′-amine] | ≤ 50 | < 100 | 5474 | 0.000183 | > 0.3
4 | N[C@@H]1c2ccnn2CC12CCN(c1cnc(Sc3cccc(-n4ccnc4)c3Cl)cn1)CC2 [Example 44, (S)-1-(5-((2-chloro-3-(1H-imidazol-1-yl)phenyl)thio)pyrazin-2-yl)-4′H,6′H-spiro[piperidine-4,5′-pyrrolo[1,2-b]pyrazol]-4′-amine] | ≤ 50 | < 100 | 3417 | 0.000293 | > 0.3
